Data set [1] is described as follows: Cytotoxicity in HepG2 cells, Resazurin viability assay. As to conditions: human, HepG2 cells, HepG2 4 days CC50 (μM), incubated for 4 days, Resazurin assay. (In general: Alamar Blue is a resazurin reagent that responds to reducing activity.)
The test system of data set [2] is HBV. Briefly: Anti-HBV activity, HepG2.117 inducibly HBV producing cell line (Tet-off), intracellular HBV DNA by realtime PCR. The data set is classed as cell-based. Conditions: Hepatitis B virus, HepG2.117, 72 h, HepG2.117 cells, 3 days of treatment, intracellular HBV DNA; read-out: HepG2 117 EC50.
For data set [3], the system named is HBV. In words: Anti-HBV activity, HepG2.2.15 stable transfected cell line, HBV DNA from secreted virions by realtime PCR. The data set is classed as cell-based. As to conditions: Hepatitis B virus, HepG2.2.15, 144 h, HepG2.2.15 cells, 6 days of treatment, HBV DNA from secreted virions; read-out: HepG2 2.15 EC50.

With `Cn1cc(S(=O)(=O)NC2(C)COC2)cc1C(=O)Nc1ccc(F)c(F)c1` [Compound 20, N-(3,4-difluorophenyl)-1-methyl-4-[(3-methyloxetan-3-yl)sulfamoyl]pyrrole-2-carboxamide], the CC50 (usually the concentration at which the toxic effect on the cells reaches its halfway point) at 4 days in data set [1] was > 25 µM. Further, the results for the EC50 in the data set with HBV [2] and in the data set on HBV [3] were 60 nM and 70 nM, respectively.

For `Cn1cc(S(=O)(=O)N[C@H]2CCOC2)cc1C(=O)Nc1ccc(F)c(F)c1` [Compound 21, N-(3,4-difluorophenyl)-1-methyl-4-[[(3S)-tetrahydrofuran-3-yl]-sulfamoyl]pyrrole-2-carboxamide], in data set [1], the CC50 at 4 days is > 25 µM. In addition, the values for the concentration giving a half-maximal response (EC50) with HBV [2] and in the data set on HBV [3] were 840 nM and 220 nM, respectively.

Turning to `CC(C)NS(=O)(=O)c1cc(C(=O)Nc2ccc(F)c(F)c2)n(C)c1` [Compound 22, N-(3,4-difluorophenyl)-4-(isopropylsulfamoyl)-1-methyl-pyrrole-2-carboxamide], the CC50 at 4 days in data set [1] was > 25 µM. Further, the EC50 (usually the concentration giving half of the maximal effect) in the data set on HBV [2] worked out at 70 nM; with HBV [3] it was 80 nM.

For the compound `CC[C@@H](C)NS(=O)(=O)c1cc(C(=O)Nc2ccc(F)c(F)c2)n(C)c1` [Compound 23, N-(3,4-difluorophenyl)-1-methyl-4-[[(1R)-1-methylpropyl]sulfamoyl]pyrrole-2-carboxamide], the CC50 at 4 days in data set [1] was > 25 µM. The EC50 in the data set on HBV [2] worked out at 130 nM; in the data set with HBV [3], 20 nM.

Regarding `C[C@H](CO)NS(=O)(=O)c1cc(C(=O)Nc2ccc(F)c(F)c2)n(C)c1` [Compound 24, N-(3,4-difluorophenyl)-4-[[(1R)-2-hydroxy-1-methyl-ethyl]sulfamoyl]-1-methyl-pyrrole-2-carboxamide], in data set [1], the CC50 at 4 days was > 25 µM. Moreover, the EC50 amounted to 300 nM in the data set with HBV [2] and 200 nM in the data set with HBV [3].

Take `Cn1cc(S(=O)(=O)N[C@H]2C[C@@H](O)C2)cc1C(=O)Nc1ccc(F)c(F)c1` [Compound 25, N-(3,4-difluorophenyl)-4-[(3-hydroxycyclobutyl)sulfamoyl]-1-methyl-pyrrole-2-carboxamide]: in data set [1], the CC50 at 4 days is > 25 µM. In addition, the EC50 came to 230 nM in the data set with HBV [2] and 340 nM with HBV [3].

In the case of `Cn1cc(S(=O)(=O)N[C@H]2CCOC2)cc1C(=O)Nc1cc(F)c(F)c(F)c1` [Compound 26, 1-methyl-[[(3S)-tetrahydrofuran-3-yl]sulfamoyl]-N-(3,4,5-trifluoro-phenyl)pyrrole-2-carboxamide], the CC50 at 4 days in data set [1] was > 25 µM. In addition, the values for the EC50 with HBV [2] and in the data set with HBV [3] were 260 nM and 140 nM, respectively.

As to `Cn1cc(S(=O)(=O)NC2(C)COC2)cc1C(=O)Nc1cc(F)c(F)c(F)c1` [Compound 27, 1-methyl-4-[(3-methyloxetan-3-yl)sulfamoyl]-N-(3,4,5-trifluorophenyl)pyrrole-2-carboxamide], the 50% cytotoxic concentration (CC50) at 4 days in data set [1] was > 25 µM. Besides, the EC50 turned out to be 60 nM with HBV [2] and 40 nM in the data set with HBV [3].

As to `Cn1cc(S(=O)(=O)NC2(C)COC2)cc1C(=O)Nc1cccc(C(F)(F)F)c1` [Compound 28, 1-methyl-4-[(3-methyloxetan-3-yl)sulfamoyl]-N-[3-(trifluoromethyl)-phenyl]pyrrole-2-carboxamide], in data set [1], the CC50 at 4 days is > 25 µM. In addition, the EC50 stood at 140 nM in the data set with HBV [2] and 100 nM with HBV [3].

Take `CCn1cc(S(=O)(=O)NC(C)C)cc1C(=O)Nc1ccc(F)c(C)c1` [Compound 29, 1-ethyl-N-(4-fluoro-3-methyl-phenyl)-4-(isopropylsulfamoyl)pyrrole-2-carboxamide]: in data set [1], the CC50 at 4 days is > 25 µM. Further, the figures for the EC50 in the data set with HBV [2] and in the data set on HBV [3] were 210 nM and 150 nM, respectively.

As to `CCn1cc(S(=O)(=O)N[C@H]2CCOC2)cc1C(=O)Nc1ccc(F)c(C)c1` [Compound 30, 1-ethyl-N-(4-fluoro-3-methyl-phenyl)-4-[[(3S)-tetrahydrofuran-3-yl]-sulfamoyl]pyrrole-2-carboxamide], in data set [1], the CC50 at 4 days was > 25 µM. The EC50 with HBV [2] was found to be 330 nM; in the data set on HBV [3], 450 nM.

With `Cc1cc(NC(=O)c2cc(S(=O)(=O)N[C@H]3CCOC3)cn2C)cc(C)c1F` [Compound 31, N-(4-fluoro-3,5-dimethyl-phenyl)-1-methyl-4-[[(3S)-tetrahydrofuran-3-yl]-sulfamoyl]pyrrole-2-carboxamide], the half-maximal cytotoxic concentration (CC50) at 4 days in data set [1] was > 25 µM. For the same compound, the results for the EC50 with HBV [2] and in the data set with HBV [3] were 390 nM and 130 nM, respectively.

On to `Cc1cc(F)cc(NC(=O)c2cc(S(=O)(=O)N[C@H]3CCOC3)cn2C)c1` [Compound 32, N-(3-fluoro-5-methyl-phenyl)-1-methyl-4-[[(3S)-tetrahydrofuran-3-yl]-sulfamoyl]pyrrole-2-carboxamide], for which the CC50 at 4 days in data set [1] was > 25 µM. For the same compound, the EC50 was determined as 340 nM in the data set on HBV [2] and 180 nM in the data set with HBV [3].

Consider `Cc1cc(NC(=O)c2cc(S(=O)(=O)NC(C)C)cn2C)cc(F)c1F` [Compound 33, N-(3,4-difluoro-5-methyl-phenyl)-4-(isopropylsulfamoyl)-1-methyl-pyrrole-2-carboxamide], for which the CC50 at 4 days in data set [1] is > 25 µM. Also, the figures for the EC50 in the data set on HBV [2] and with HBV [3] were 40 nM and 30 nM, respectively.

With `CC[C@@H](C)NS(=O)(=O)c1cc(C(=O)Nc2cc(C)c(F)c(F)c2)n(C)c1` [Compound 34, N-(3,4-difluoro-5-methyl-phenyl)-1-methyl-4-[[(1R)-1-methylpropyl]-sulfamoyl]pyrrole-2-carboxamide], in data set [1], the CC50 at 4 days is > 25 µM. The values for the EC50 with HBV [2] and in the data set with HBV [3] were < 20 nM and 30 nM, respectively.

For the compound `Cc1cc(NC(=O)c2cc(S(=O)(=O)NC3(C)COC3)cn2C)cc(F)c1F` [Compound 35, N-(3,4-difluoro-5-methyl-phenyl)-1-methyl-4-[(3-methyloxetan-3-yl)-sulfamoyl]pyrrole-2-carboxamide], in data set [1], the CC50 at 4 days is > 25 µM. Moreover, the values for the EC50 with HBV [2] and in the data set with HBV [3] were 20 nM and 30 nM, respectively.

Turning to `Cc1cc(NC(=O)c2cc(S(=O)(=O)N[C@H](C)CO)cn2C)cc(F)c1F` [Compound 36, N-(3,4-difluoro-5-methyl-phenyl)-4-[[(1R)-2-hydroxy-1-methyl-ethyl]-sulfamoyl]-1-methyl-pyrrole-2-carboxamide], in data set [1], the half-maximal cytotoxic concentration (CC50) at 4 days is > 25 µM. The EC50 in the data set with HBV [2] came to 40 nM; with HBV [3], 80 nM.

Turning to `Cc1cc(NC(=O)c2cc(S(=O)(=O)N[C@H]3CCOC3)cn2C)cc(F)c1F` [Compound 37, N-(3,4-difluoro-5-methyl-phenyl)-1-methyl-4-[[(3S)-tetrahydrofuran-3-yl]-sulfamoyl]pyrrole-2-carboxamide], in data set [1], the CC50 at 4 days is > 25 µM. Also, the values for the EC50 in the data set on HBV [2] and with HBV [3] were 380 nM and 730 nM, respectively.

Take `Cc1cc(NC(=O)c2cc(S(=O)(=O)NC(C)(C)C)cn2C)cc(F)c1F` [Compound 38, 4-(tert-butylsulfamoyl)-N-(3,4-difluoro-5-methyl-phenyl)-1-methyl-pyrrole-2-carboxamide]: the half-maximal cytotoxic concentration (CC50) at 4 days in data set [1] is > 25 µM. Besides, the EC50 with HBV [2] stood at 20 nM; in the data set on HBV [3], 50 nM.

As to `Cn1cc(S(=O)(=O)NC2(C)COC2)cc1C(=O)Nc1ccc(F)c(C(F)F)c1` [Compound 39, N-[3-(difluoromethyl)-4-fluoro-phenyl]-1-methyl-4-[(3-methyloxetan-3-yl)sulfamoyl]pyrrole-2-carboxamide], in data set [1], the CC50 at 4 days was > 25 µM. The figures for the EC50 in the data set with HBV [2] and in the data set on HBV [3] were 40 nM and 50 nM, respectively.

Turning to `C[C@H](CO)NS(=O)(=O)c1cc(C(=O)Nc2ccc(F)c(C(F)F)c2)n(C)c1` [Compound 40, N-[3-(difluoromethyl)-4-fluoro-phenyl]-4-[[(1R)-2-hydroxy-1-methyl-ethyl]sulfamoyl]-1-methyl-pyrrole-2-carboxamide], the CC50 at 4 days in data set [1] is > 25 µM. The EC50 in the data set with HBV [2] is 120 nM; in the data set with HBV [3], 200 nM.

On to `C[C@H](CO)NS(=O)(=O)c1cc(C(=O)Nc2ccc(F)c(C(F)(F)F)c2)n(C)c1` [Compound 41, N-[4-fluoro-3-(trifluoromethyl)phenyl]-4-[[(1R)-2-hydroxy-1-methyl-ethyl]sulfamoyl]-1-methyl-pyrrole-2-carboxamide], for which, in data set [1], the CC50 at 4 days is > 25 µM. The EC50 with HBV [2] was found to be 330 nM; in the data set with HBV [3], 520 nM.

With `Cn1cc(S(=O)(=O)N[C@H]2CCOC2)cc1C(=O)Nc1ccc(F)c(C(F)(F)F)c1` [Compound 42, N-[4-fluoro-3-(trifluoromethyl)phenyl]-1-methyl-4-[[(3S)-tetrahydrofuran-3-yl]sulfamoyl]pyrrole-2-carboxamide], in data set [1], the CC50 at 4 days was > 25 µM. Further, the EC50 in the data set with HBV [2] was 720 nM; in the data set with HBV [3], 540 nM.

In the case of `Cn1cc(S(=O)(=O)NC2(C)COC2)cc1C(=O)Nc1ccc(F)c(C(F)(F)F)c1` [Compound 43, N-[4-fluoro-3-(trifluoromethyl)phenyl]-1-methyl-4-[(3-methyloxetan-3-yl)-sulfamoyl]pyrrole-2-carboxamide], the CC50 at 4 days in data set [1] is > 25 µM. The figures for the EC50 in the data set with HBV [2] and in the data set with HBV [3] were 130 nM and 110 nM, respectively.

Turning to `CC(C)NS(=O)(=O)c1cc(C(=O)Nc2ccc(F)c(C(F)(F)F)c2)n(C)c1` [Compound 44, N-[4-fluoro-3-(trifluoromethyl)phenyl]-4-(isopropylsulfamoyl)-1-methyl-pyrrole-2-carboxamide], the CC50 at 4 days in data set [1] is > 25 µM. For the same compound, the concentration giving a half-maximal response (EC50) with HBV [2] is 260 nM; in the data set with HBV [3], 370 nM.

Regarding `Cn1cc(S(=O)(=O)NC2(C)COC2)cc1C(=O)Nc1cc(F)cc(C(F)(F)F)c1` [Compound 45, N-[3-fluoro-5-(trifluoromethyl)phenyl]-1-methyl-4-[(3-methyloxetan-3-yl)sulfamoyl]pyrrole-2-carboxamide], the CC50 at 4 days in data set [1] was > 25 µM. Also, the EC50 in the data set on HBV [2] came to 340 nM; in the data set on HBV [3] it was 320 nM.

On to `CC(C)NS(=O)(=O)c1cc(C(=O)Nc2cc(F)c(F)c(Br)c2)n(C)c1` [Compound 46, N-(3-bromo-4,5-difluoro-phenyl)-4-(isopropylsulfamoyl)-1-methyl-pyrrole-2-carboxamide], for which the CC50 at 4 days in data set [1] is > 25 µM. For the same compound, the values for the EC50 in the data set on HBV [2] and in the data set on HBV [3] were 170 nM and 120 nM, respectively.

Values taken from patent US9884818B2, “Sulphamoylpyrrolamide derivatives and the use thereof as medicaments for the treatment of hepatitis B” (Janssen Sciences Ireland UC, priority 2013, dated 2018).
